Results taken from patent US20060069132A1, “Azolecarboxamide herbicides” (priority 2004, published 2006).

Assays:
Surinam grass = assay: Test B pre-/postemergence herbicide test; assay type: in vivo, Urochloa decumbens; settings: for Surinam Grass plant response rating: scale 0 (no effect) to 100 (complete control)
Method in brief: (§1)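 Greenhouse pot assay with simultaneous preemergence (treated seed) and postemergence (2–18 cm seedlings) applications of surfactant-containing, non-phytotoxic solvent formulations. Response scored visually 13–15 days later on a 0–100 scale, 100 meaning complete control.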

cocklebur = assay: Test B pre-/postemergence herbicide test; assay type: in vivo, Xanthium strumarium; settings: for Cocklebur plant response rating: scale 0 (no effect) to 100 (complete control)
Method in brief: (§2)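 Pre: seeds sown, then sprayed. Post: 1–4-leaf plants (2–18 cm) sprayed at the same time. Paddy: flooded, treated at 2-leaf stage. Formulation: non-phytotoxic solvent with surfactant. Greenhouse 13–15 days; visual 0–100 score relative to controls.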

corn = assay: Test B pre-/postemergence herbicide test; assay type: in vivo, Zea mays; settings: for Corn plant response rating: scale 0 (no effect) to 100 (complete control)
Method in brief: as §1

large crabgrass = assay: Test B pre-/postemergence herbicide test; assay type: in vivo, Digitaria sanguinalis; settings: for Crabgrass, Large plant response rating: scale 0 (no effect) to 100 (complete control)
Method in brief: as §1

giant foxtail = assay: Test B pre-/postemergence herbicide test; assay type: in vivo, Setaria faberi; settings: for Foxtail, Giant plant response rating: scale 0 (no effect) to 100 (complete control)
Method in brief: as §1

lambsquarters = assay: Test B pre-/postemergence herbicide test; assay type: in vivo, Chenopodium album; settings: for Lambsquarters plant response rating: scale 0 (no effect) to 100 (complete control)
Method in brief: as §1

morningglory = assay: Test B pre-/postemergence herbicide test; assay type: in vivo, Ipomoea coccinea; settings: for Morningglory plant response rating: scale 0 (no effect) to 100 (complete control)
Method in brief: as §2

pigweed = assay: Test B pre-/postemergence herbicide test; assay type: in vivo, Amaranthus retroflexus; settings: for Pigweed plant response rating: scale 0 (no effect) to 100 (complete control)
Method in brief: as §1

velvetleaf = assay: Test B pre-/postemergence herbicide test; assay type: in vivo, Abutilon theophrasti; settings: for Velvetleaf plant response rating: scale 0 (no effect) to 100 (complete control)
Method in brief: as §1

blackgrass = assay: Test B postemergence herbicide test; assay type: in vivo, Alopecurus myosuroides; settings: scale 0 (no effect) to 100 (complete control)
Method in brief: (§3)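 Read-out: visual comparison with controls, scored 0 to 100, where 100 means complete control and 0 no effect. Formulated chemicals were applied postemergence to plants 2–18 cm tall (1- to 4-leaf), or to flooded-paddy plants at the 2-leaf stage, then held 13 to 15 days under glass.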

wheat = assay: Test B postemergence herbicide test; assay type: in vivo, Triticum aestivum; parameters: key to Wheat plant response rating: 0 = no effect, 100 = complete control
Method in brief: (§4)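 Scale 0–100: zero equals no visible effect, 100 complete control, judged by eye relative to controls. Timing: 13 to 15 days in greenhouse post-treatment. Growth stage at spraying: two leaves (paddy) or one to four leaves, 2–18 cm (postemergence).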

wild oat = assay: Test B postemergence herbicide test; assay type: in vivo, Avena fatua; settings: scale 0 (no effect) to 100 (complete control)
Method in brief: as §4

rice = assay: Test B flooded paddy test; assay type: in vivo, Oryza sativa; settings: 1000 g ai/ha, scale 0 to 100 (0 no effect, 100 complete control)
Method in brief: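 Greenhouse test; postemergence application to plants at 1–4 leaves (2–18 cm); paddy species at 2 leaves; evaluated visually vs controls at 13–15 days; scale 0–100 (100 = complete control).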

[1] = tested on: small flower umbrella sedge; assay: Test B flooded paddy test; assay type: in vivo, Cyperus difformis; settings: 1000 g ai/ha, scale 0 to 100 (0 no effect, 100 complete control)
Method in brief: as §3

barnyardgrass = assay: Test B flooded paddy test; assay type: in vivo, Echinochloa crus-galli; settings: 1000 g ai/ha, scale 0 to 100 (0 no effect, 100 complete control)
Method in brief: as §3

[2] = 500 g ai/ha, visual rating 0-100, 0 no effect, 100 complete control, preemergence
[3] = postemergence, 125 g ai/ha, visual rating
[4] = postemergence, 500 g ai/ha, visual rating
[5] = preemergence, 125 g ai/ha, 0 to 100 scale, 0 is no effect, 100 is complete control
[6] = postemergence, 500 g ai/ha, visual rating, scale 0 (no effect) to 100 (complete control)
[7] = 125 g ai/ha, 0 is no effect, 100 is complete control, preemergence
[8] = 125 g ai/ha, visual rating, postemergence

CCn1nc(C(C)(C)C)cc1C(=O)Nc1cc(C#N)ccc1F [Compound 140]
Plant response rating, Surinam Grass (Surinam grass; [2]): 60 | Surinam Grass plant response rating (Surinam grass; [3]): 0 | Surinam Grass plant response rating (Surinam grass; [4]): 0 | Plant response rating, Surinam Grass (Surinam grass; [5]): 0 | Plant response rating, Cocklebur (cocklebur; [2]): 80 | Cocklebur plant response rating (cocklebur; [3]): 0 | Cocklebur plant response rating (cocklebur; [4]): 20 | Plant response rating, Corn (corn; [2]): 0 | Corn plant response rating (corn; [3]): 0 | Corn plant response rating (corn; [4]): 10 | Plant response rating, Corn (corn; [5]): 0 | Plant response rating, Crabgrass, Large (large crabgrass; [2]): 100 | Crabgrass, Large plant response rating (large crabgrass; [3]): 0 | Crabgrass, Large plant response rating (large crabgrass; [4]): 0 | Plant response rating, Crabgrass, Large (large crabgrass; [5]): 0 | Plant response rating, Foxtail, Giant (giant foxtail; [2]): 80 | Foxtail, Giant plant response rating (giant foxtail; [3]): 0 | Foxtail, Giant plant response rating (giant foxtail; [4]): 0 | Plant response rating, Foxtail, Giant (giant foxtail; [5]): 0 | Plant response rating, Lambsquarters (lambsquarters; [2]): 100 | Lambsquarters plant response rating (lambsquarters; [3]): 20 | Lambsquarters plant response rating (lambsquarters; [4]): 80 | Plant response rating, Lambsquarters (lambsquarters; [5]): 0 | Morningglory plant response rating (morningglory; [3]): 0 | Morningglory plant response rating (morningglory; [4]): 0 | Plant response rating, Pigweed (pigweed; [2]): 80 | Pigweed plant response rating (pigweed; [3]): 0 | Pigweed plant response rating (pigweed; [4]): 0 | Plant response rating, Pigweed (pigweed; [5]): 0 | Plant response rating, Velvetleaf (velvetleaf; [2]): 20 | Velvetleaf plant response rating (velvetleaf; [3]): 0 | Velvetleaf plant response rating (velvetleaf; [4]): 0 | Plant response rating, Velvetleaf (velvetleaf; [5]): 0 | Blackgrass plant response rating (blackgrass; [3]): 0 | Blackgrass plant response rating (blackgrass; [4]): 0 | Wheat plant response rating (wheat; [6]): 0 | Oat, Wild plant response rating (wild oat; [3]): 0 | Oat, Wild plant response rating (wild oat; [4]): 0 | Rice plant response rating (rice; visual rating, 13 to 15 days): 30 | Sedge, Umbrella plant response rating ([1]; visual rating, 13 to 15 days): 80 | Barnyardgrass plant response rating (barnyardgrass; visual rating, 13 to 15 days): 70

CCN(CC)C(=O)c1cccc(NC(=O)c2cc(C(C)(C)C)nn2CC)n1 [Compound 145]
Plant response rating, Surinam Grass (Surinam grass; [2]): 80 | Surinam Grass plant response rating (Surinam grass; [3]): 20 | Surinam Grass plant response rating (Surinam grass; [4]): 20 | Plant response rating, Surinam Grass (Surinam grass; [5]): 30 | Plant response rating, Cocklebur (cocklebur; [2]): 20 | Cocklebur plant response rating (cocklebur; [3]): 0 | Cocklebur plant response rating (cocklebur; [4]): 30 | Plant response rating, Cocklebur (cocklebur; [5]): 0 | Plant response rating, Corn (corn; [2]): 10 | Corn plant response rating (corn; [3]): 10 | Corn plant response rating (corn; [4]): 20 | Plant response rating, Corn (corn; [5]): 0 | Plant response rating, Crabgrass, Large (large crabgrass; [2]): 100 | Crabgrass, Large plant response rating (large crabgrass; [3]): 10 | Crabgrass, Large plant response rating (large crabgrass; [4]): 10 | Plant response rating, Foxtail, Giant (giant foxtail; [2]): 100 | Foxtail, Giant plant response rating (giant foxtail; [3]): 30 | Foxtail, Giant plant response rating (giant foxtail; [4]): 40 | Plant response rating, Foxtail, Giant (giant foxtail; [5]): 80 | Plant response rating, Lambsquarters (lambsquarters; [2]): 100 | Lambsquarters plant response rating (lambsquarters; [3]): 60 | Lambsquarters plant response rating (lambsquarters; [4]): 70 | Plant response rating, Lambsquarters (lambsquarters; [5]): 80 | Plant response rating, Morningglory (morningglory; [2]): 40 | Morningglory plant response rating (morningglory; [3]): 0 | Morningglory plant response rating (morningglory; [4]): 20 | Plant response rating, Morningglory (morningglory; [5]): 30 | Plant response rating, Pigweed (pigweed; [2]): 100 | Pigweed plant response rating (pigweed; [3]): 90 | Pigweed plant response rating (pigweed; [4]): 100 | Plant response rating, Pigweed (pigweed; [5]): 100 | Plant response rating, Velvetleaf (velvetleaf; [2]): 100 | Velvetleaf plant response rating (velvetleaf; [3]): 50 | Velvetleaf plant response rating (velvetleaf; [4]): 60 | Plant response rating, Velvetleaf (velvetleaf; [5]): 80 | Blackgrass plant response rating (blackgrass; [3]): 10 | Blackgrass plant response rating (blackgrass; [4]): 10 | Wheat plant response rating (wheat; [6]): 20 | Oat, Wild plant response rating (wild oat; [3]): 10 | Oat, Wild plant response rating (wild oat; [4]): 30 | Rice plant response rating (rice; visual rating, 13 to 15 days): 40 | Sedge, Umbrella plant response rating ([1]; visual rating, 13 to 15 days): 90 | Barnyardgrass plant response rating (barnyardgrass; visual rating, 13 to 15 days): 70

Cc1nn(C(C)(C)C)nc1C(=O)Nc1cccc(C(=O)N(C)C)c1 [Compound 391]
Plant response rating (0 to 100 scale), Surinam Grass (Surinam grass; [7]): 100 | Surinam Grass plant response rating (Surinam grass; [8]): 10 | Surinam Grass plant response rating (Surinam grass; Postemergence, 500 g ai/ha): 30 | Plant response rating (0 to 100 scale), Cocklebur (cocklebur; [7]): 70 | Cocklebur plant response rating (cocklebur; [8]): 30 | Cocklebur plant response rating (cocklebur; Postemergence, 500 g ai/ha): 30 | Plant response rating (0 to 100 scale), Corn (corn; [7]): 90 | Corn plant response rating (corn; [8]): 10 | Corn plant response rating (corn; Postemergence, 500 g ai/ha): 30 | Plant response rating (0 to 100 scale), Crabgrass, Large (large crabgrass; [7]): 100 | Crabgrass, Large plant response rating (large crabgrass; [8]): 10 | Crabgrass, Large plant response rating (large crabgrass; Postemergence, 500 g ai/ha): 30 | Plant response rating (0 to 100 scale), Foxtail, Giant (giant foxtail; [7]): 90 | Foxtail, Giant plant response rating (giant foxtail; [8]): 20 | Foxtail, Giant plant response rating (giant foxtail; Postemergence, 500 g ai/ha): 30 | Plant response rating (0 to 100 scale), Lambsquarters (lambsquarters; [7]): 100 | Lambsquarters plant response rating (lambsquarters; [8]): 70 | Lambsquarters plant response rating (lambsquarters; Postemergence, 500 g ai/ha): 90 | Plant response rating (0 to 100 scale), Morningglory (morningglory; [7]): 90 | Morningglory plant response rating (morningglory; [8]): 30 | Morningglory plant response rating (morningglory; Postemergence, 500 g ai/ha): 70 | Plant response rating (0 to 100 scale), Pigweed (pigweed; [7]): 100 | Pigweed plant response rating (pigweed; [8]): 50 | Pigweed plant response rating (pigweed; Postemergence, 500 g ai/ha): 70 | Plant response rating (0 to 100 scale), Velvetleaf (velvetleaf; [7]): 80 | Velvetleaf plant response rating (velvetleaf; [8]): 40 | Velvetleaf plant response rating (velvetleaf; Postemergence, 500 g ai/ha): 60 | Blackgrass plant response rating (blackgrass; [8]): 30 | Blackgrass plant response rating (blackgrass; Postemergence, 500 g ai/ha): 70 | Wheat plant response rating (wheat; 125 g ai/ha, visual rating, scale 0 (no effect) to 100 (complete control), postemergence): 0 | Wheat plant response rating (wheat; 500 g ai/ha, scale 0 to 100, 0 no effect, 100 complete control, preemergence): 100 | Wheat plant response rating (wheat; Postemergence, 500 g ai/ha, scale 0 (no effect) to 100 (complete control)): 10 | Oat, Wild plant response rating (wild oat; [8]): 0 | Oat, Wild plant response rating (wild oat; Postemergence, 500 g ai/ha): 20 | Rice plant response rating (rice): 90 | Sedge, Umbrella plant response rating [1]: 80 | Barnyardgrass plant response rating (barnyardgrass): 90
